Test results published in paper PMC10616469, “Pharmacokinetics and tissue distribution of four major bioactive components of Cynanchum auriculatum extract: a UPLC–MS/MS study in normal and functional dyspepsia rats” (Frontiers in Pharmacology, 2023).
Like-named read-outs stand apart in the source and are kept apart here.

How the values were obtained:
[1] = PK study: plasma pharmacokinetics after oral administration of CA extract in normal and FD rats (UPLC-MS/MS); type: in vivo; details: Sprague-Dawley, rat; for AUC(0-inf) / AUC(0-t) / CL/F / Cmax / half-life: n = 6; for Vd/F: n = 6, read-out: Vz/F
Procedure: For PK experiments, an appropriate amount of the CA extract was weighed to prepare a 0.10 g/mL solution using physiological saline. Briefly, 12 SD rats were randomly assigned to normal and FD groups and were orally administered the prepared CA sample (10 mL/kg body weight). For assessment, 0.3 mL of blood was collected into heparinized tubes via the caudal vein before dosing and at 2, 5, 10, 15, 20, 30, and 45 min, and 1, 2, 4, 8, 12, 24, and 48 h after administration. Blood samples were then immediately centrifuged at 4,500 rpm for 15 min, and the obtained plasma samples were stored at −20°C until determination.
The PK parameters were analyzed using the non–compartment analysis using the WinNonLin 8.2 software (Phoenix, United States). All the data were expressed as mean ± standard deviation (SD). The normal and FD groups were compared using independent samples t–test in SPSS 22.0. Results with p values < 0.05 were considered statistically significant.

[2] = rat, in vivo
Procedure: (§1) UPLC–MS/MS analysis was conducted using the ACQUITY UPLC system (Waters Corp., Milford, MA, United States) equipped with a Xevo–TQ mass spectrometer (Waters Corp., Milford, MA, United States) with an electrospray ionization (ESI) interface and triple quadrupole mass analyzer.
(§2) The ACQUITY UPLC® BEH C18 column (2.1 mm × 50 mm, 1.7 μm, Waters, United States) was used for separation and was maintained at 40°C. The mobile phase consisted of 0.1% formic acid in water (A) and 0.1% formic acid–acetonitrile (B) for PK study and 0.2% formic acid in water (A) and 0.2% formic acid–acetonitrile (B) for tissue distribution study. The mobile phase was eluted as a gradient, as follows: 0–0.5 min, 10% B; 0.5–3.0 min, 15% B; 3.0–3.2 min, 25% B; 3.2–4.0 min, 30% B; 4.0–4.5 min, 32% B; 4.5–6.0 min, 90% B; and 6.0 min, 10% B. The flow rate was set at 0.35 mL/min and the injection volume was 2 μL for the PK study and 1 μL for the tissue distribution study.
(§3) The four active components of CA were quantified using multiple reaction monitoring under negative ion mode. The following m/z transitions were chosen for quantification: baishouwu benzophenone 301.00→283.00, deacylmetaplexigenin 379.15→361.20, qingyangshengenin 499.20→137.00, syringic acid 197.20→181.95, and puerarin (internal standard, IS) 415.10→267.05. The collision energy was 15, 15, 35, 15, and 35 V, respectively ([Sun et al., 2022]). ESI mode was operated under the following conditions: capillary voltage, 1 kV; desolvation gas (N2), 1000 L/h; collision gas (Ar2), 150 L/h; desolvation temperature, 400°C; and source temperature, 120°C.
(§4) Additionally, stomach and small intestinal tissues were diluted three times to obtain a tissue homogenate. Then, 300 μL of this tissue homogenate was mixed with 30 μL 1% formic acid-water, 20 μL IS, and 1.2 mL acetonitrile. The mixture was then vortexed for 5 min, sonicated for 10 min, and then stored at −20°C for 30 min. Subsequently, the mixture was centrifuged at 14,000 rpm for 10 min. The supernatant obtained was then transferred to another tube and evaporated to dryness at 37°C under nitrogen. The dried residue was reconstituted with 200 μL of the 50% methanol–water, and the centrifugation process was repeated. The obtained supernatant was then used for further analysis.
(§5) SD rats were randomly divided into normal and FD groups (n = 30 each) and orally administered 10 mL/kg of CA extract solution. The rats were sacrificed at 10, 30 min, 1, 2, and 4 h after administration (6 rats per time point). Subsequently, their heart, liver, spleen, lung, kidney, brain, small intestine, and stomach were removed. The tissue samples were then washed in saline solution and wiped with filter paper. Subsequently, all tissues were stored at −80°C until analysis.

[3] = Stability of the four compounds in plasma samples (QC samples); details: n = 5
Procedure: In a 1.5 mL EP tube, 100 μL of plasma sample was mixed with 10 µL 1% formic acid–water, 10 μL IS (0.2011 μg/mL), and 400 μL acetonitrile. The mixture was then vortexed for 5 min, followed by sonication for 10 min at 40 kHz and centrifugation at 14,000 rpm for 10 min. The supernatant obtained was transferred to another tube and evaporated to dryness under a nitrogen vacuum at 37°C. The residue obtained was reconstituted with 150 μL of the initial mobile phase, and the centrifugation process was repeated. The supernatant thus obtained was then used for further analysis.
Similarly, QC samples of three concentrations (low, medium, and high) were prepared.
The specificity of the method was evaluated by comparing the retention times of analytes and IS in the blank matrix, blank matrix spiked with the four analytes and IS, and the samples after oral administration of CA extract. Calibration curves were constructed by comparing the ratio of peak areas of the four analytes to that of IS versus the concentration of the four analytes. Calibration curves were fitted via linear weighted (1/X ^ 2 ) least–squares regression. The intra–and inter–day precision and accuracy were estimated by analyzing QC samples at different concentrations on the same day and three consecutive validation days, respectively. The extraction recovery was evaluated by determining the peak area of analytes in QC samples compared with that in extracted matrix samples. The relative standard deviation of the extraction recovery of analytes at each level was retained at ≤20.0%. The following parameters of stability were assessed: short–term stability (24 h at room temperature), processed sample stability (24 h at 4°C), freeze–thaw stability (3 cycles), and auto–sampler stability (6 h at room temperature). QC samples of different concentrations were used for stability analysis.

[4] = Stability of the four compounds in tissue homogenate samples (QC samples); details: mean ± s, n = 5
Procedure: as §4
The appropriate amount of the reference substance was accurately weighed and dissolved in an appropriate amount of methanol to obtain stock solutions. The concentrations of the resulting stock solution were 0.9996 mg/mL for baishouwu benzophenone, 0.9518 mg/mL for deacylmetaplexigenin, 1.3660 mg/mL for qingyangshengenin, and 0.9898 mg/mL for syringic acid. Accurate volumes of each stock solution were mixed to obtain working solution, which was then serially diluted with methanol to provide standard working solutions. Similarly, QC samples of three concentrations (low, medium, and high) were prepared. All solutions were stored at −20°C for later use.
The following parameters of stability were assessed: short–term stability (24 h at room temperature), processed sample stability (24 h at 4°C), freeze–thaw stability (3 cycles), and auto–sampler stability (6 h at room temperature). QC samples of different concentrations were used for stability analysis.

[5] = Tissue distribution study after oral administration of CA extract in normal and FD rats; details: distribution found in rat brain
Procedure: as §1, §2, §3, §4, §5

[6] = FD group rats, oral CA extract (0.10 g/mL solution, 10 mL/kg)
[7] = Normal group rats, oral CA extract (0.10 g/mL solution, 10 mL/kg)
[8] = high QC (nominal 1666.00 / 3172.53 / 569.17 / 206.21 ng·mL^-1)
[9] = low QC (nominal 52.06 / 49.57 / 8.89 / 1.61 ng·mL^-1)
[10] = medium QC (nominal 208.25 / 396.57 / 71.13 / 25.78 ng·mL^-1)
[11] = Brain homogenate, highest QC (ng·mL^-1): Baishouwu benzophenone 131.10, Syringic acid 320.04, Qingyangshengenin 62.12, Deacylmetaplexigenin 677.19
[12] = Brain homogenate, lowest QC (ng·mL^-1): Baishouwu benzophenone 3.34, Syringic acid 8.18, Qingyangshengenin 1.58, Deacylmetaplexigenin 17.26
[13] = Brain homogenate, middle QC (ng·mL^-1): Baishouwu benzophenone 20.88, Syringic acid 51.14, Qingyangshengenin 9.90, Deacylmetaplexigenin 107.87
[14] = Heart homogenate, highest QC (ng·mL^-1): Baishouwu benzophenone 111.56, Syringic acid 340.93, Qingyangshengenin 350.76, Deacylmetaplexigenin 1522.88
[15] = Heart homogenate, lowest QC (ng·mL^-1): Baishouwu benzophenone 2.66, Syringic acid 8.11, Qingyangshengenin 8.35, Deacylmetaplexigenin 36.24
[16] = Heart homogenate, middle QC (ng·mL^-1): Baishouwu benzophenone 18.96, Syringic acid 57.96, Qingyangshengenin 59.63, Deacylmetaplexigenin 258.89
[17] = Kidney homogenate, highest QC (ng·mL^-1): Baishouwu benzophenone 768.40, Syringic acid 1230.44, Qingyangshengenin 844.98, Deacylmetaplexigenin 2249.71
[18] = Kidney homogenate, lowest QC (ng·mL^-1): Baishouwu benzophenone 9.84, Syringic acid 15.75, Qingyangshengenin 10.82, Deacylmetaplexigenin 28.80
[19] = Kidney homogenate, middle QC (ng·mL^-1): Baishouwu benzophenone 81.96, Syringic acid 131.25, Qingyangshengenin 90.13, Deacylmetaplexigenin 239.97
[20] = Liver homogenate, highest QC (ng·mL^-1): Baishouwu benzophenone 313.75, Syringic acid 268.07, Qingyangshengenin 4484.13, Deacylmetaplexigenin 3093.35
[21] = Liver homogenate, lowest QC (ng·mL^-1): Baishouwu benzophenone 1.77, Syringic acid 22.34, Qingyangshengenin 25.26, Deacylmetaplexigenin 16.38
[22] = Liver homogenate, middle QC (ng·mL^-1): Baishouwu benzophenone 27.19, Syringic acid 89.35, Qingyangshengenin 386.62, Deacylmetaplexigenin 268.09
[23] = Lung homogenate, highest QC (ng·mL^-1): Baishouwu benzophenone 630.29, Syringic acid 662.80, Qingyangshengenin 385.86, Deacylmetaplexigenin 1513.71
[24] = Lung homogenate, lowest QC (ng·mL^-1): Baishouwu benzophenone 17.66, Syringic acid 18.57, Qingyangshengenin 10.81, Deacylmetaplexigenin 42.42
[25] = Lung homogenate, middle QC (ng·mL^-1): Baishouwu benzophenone 105.98, Syringic acid 111.44, Qingyangshengenin 64.88, Deacylmetaplexigenin 254.52
[26] = Small intestine homogenate, highest QC (ng·mL^-1): Baishouwu benzophenone 39.22, Syringic acid 773.28, Qingyangshengenin 1726.39, Deacylmetaplexigenin 1206.41
[27] = Small intestine homogenate, lowest QC (ng·mL^-1): Baishouwu benzophenone 0.46, Syringic acid 9.31, Qingyangshengenin 20.77, Deacylmetaplexigenin 14.52
[28] = Small intestine homogenate, middle QC (ng·mL^-1): Baishouwu benzophenone 4.97, Syringic acid 97.95, Qingyangshengenin 218.68, Deacylmetaplexigenin 152.81
[29] = Spleen homogenate, highest QC (ng·mL^-1): Baishouwu benzophenone 658.88, Syringic acid 752.66, Qingyangshengenin 418.52, Deacylmetaplexigenin 1979.74
[30] = Spleen homogenate, lowest QC (ng·mL^-1): Baishouwu benzophenone 10.98, Syringic acid 12.54, Qingyangshengenin 6.98, Deacylmetaplexigenin 33.00
[31] = Spleen homogenate, middle QC (ng·mL^-1): Baishouwu benzophenone 87.85, Syringic acid 100.35, Qingyangshengenin 55.80, Deacylmetaplexigenin 263.97
[32] = Stomach homogenate, highest QC (ng·mL^-1): Baishouwu benzophenone 47.06, Syringic acid 257.76, Qingyangshengenin 1285.45, Deacylmetaplexigenin 1665.65
[33] = Stomach homogenate, lowest QC (ng·mL^-1): Baishouwu benzophenone 0.63, Syringic acid 3.44, Qingyangshengenin 17.14, Deacylmetaplexigenin 22.21
[34] = Stomach homogenate, middle QC (ng·mL^-1): Baishouwu benzophenone 6.28, Syringic acid 34.37, Qingyangshengenin 171.39, Deacylmetaplexigenin 222.09

## CC(=O)C1(O)CCC2(O)C3(O)CC=C4CC(O)CCC4(C)C3CC(O)C12C (stereo not shown) [Deacylmetaplexigenin]
[1]; 1 g/kg, oral CA extract, normal and FD rats, read-out: time of peak concentration (Tmax)
  Tmax: 20 to 30 min
[1]; [6]
  AUC(0-inf): 13900 ng·h/mL
  AUC(0-t): 13300 ng·h/mL
  CL/F: 16.5 mL/min/kg
  Cmax: 4510 ± 241 ng/mL
  half-life: 772 ± 454 min
  Vd/F: 18.1 ± 10.6 L/kg
[1]; FD group rats, oral CA extract (0.10 g/mL solution, 10 mL/kg), n = 6, read-out: Tmax
  Tmax: 19.8 ± 4.8 min
[1]; [7]
  AUC(0-inf): 12300 ng·h/mL
  AUC(0-t): 11600 ng·h/mL
  CL/F: 19.2 mL/min/kg
  Cmax: 4680 ± 499 ng/mL
  half-life: 602 ± 190 min
  Vd/F: 16 ± 3.79 L/kg
[1]; Normal group rats, oral CA extract (0.10 g/mL solution, 10 mL/kg), n = 6, read-out: Tmax
  Tmax: 25.2 ± 6.6 min
[2]; Sprague-Dawley
  time after oral administration at which almost completely metabolized in tissues: 4 h
[2]; Sprague-Dawley, po
  time of peak in most of organ tissues: 0.17 to 0.5 h
[2]; po
  tissue with the highest concentration: stomach and small intestine
[3]; [8]
  Measured concentration, 4°C for 24 h: 3164.75 ± 84.97 ng/mL
  Measured concentration, Three freeze-thaw cycles: 3053.63 ± 57.47 ng/mL
[3]; [9]
  Measured concentration, 4°C for 24 h: 52.01 ± 2.68 ng/mL
  Measured concentration, Three freeze-thaw cycles: 53.08 ± 3.47 ng/mL
[3]; [10]
  Measured concentration, 4°C for 24 h: 406.61 ± 10.59 ng/mL
  Measured concentration, Three freeze-thaw cycles: 352.32 ± 6.40 ng/mL
[4]; [11]
  Auto-sampler for 6 h Measured concentration: 639.39 ± 12.53 ng/mL
  Three freeze-thaw cycles Measured concentration: 657.30 ± 18.60 ng/mL
[4]; [12]
  Auto-sampler for 6 h Measured concentration: 16.37 ± 0.20 ng/mL
  Three freeze-thaw cycles Measured concentration: 16.11 ± 0.43 ng/mL
[4]; [13]
  Auto-sampler for 6 h Measured concentration: 106.81 ± 0.35 ng/mL
  Three freeze-thaw cycles Measured concentration: 107.57 ± 1.64 ng/mL
[4]; [14]
  Auto-sampler for 6 h Measured concentration: 1545.69 ± 28.28 ng/mL
  Three freeze-thaw cycles Measured concentration: 1530.72 ± 31.74 ng/mL
[4]; [15]
  Auto-sampler for 6 h Measured concentration: 29.91 ± 0.63 ng/mL
  Three freeze-thaw cycles Measured concentration: 30.14 ± 0.33 ng/mL
[4]; [16]
  Auto-sampler for 6 h Measured concentration: 253.92 ± 7.65 ng/mL
  Three freeze-thaw cycles Measured concentration: 251.51 ± 4.47 ng/mL
[4]; [17]
  Auto-sampler for 6 h Measured concentration: 2268.44 ± 53.12 ng/mL
  Three freeze-thaw cycles Measured concentration: 2270.72 ± 48.43 ng/mL
[4]; [18]
  Auto-sampler for 6 h Measured concentration: 30.96 ± 0.89 ng/mL
  Three freeze-thaw cycles Measured concentration: 30.51 ± 1.21 ng/mL
[4]; [19]
  Auto-sampler for 6 h Measured concentration: 267.87 ± 13.29 ng/mL
  Three freeze-thaw cycles Measured concentration: 266.54 ± 9.78 ng/mL
[4]; [20]
  Auto-sampler for 6 h Measured concentration: 3350.30 ± 128.16 ng/mL
  Three freeze-thaw cycles Measured concentration: 3302.83 ± 129.48 ng/mL
[4]; [21]
  Auto-sampler for 6 h Measured concentration: 15.66 ± 0.68 ng/mL
  Three freeze-thaw cycles Measured concentration: 15.51 ± 0.68 ng/mL
[4]; [22]
  Auto-sampler for 6 h Measured concentration: 249.04 ± 7.02 ng/mL
  Three freeze-thaw cycles Measured concentration: 245.11 ± 4.40 ng/mL
[4]; [23]
  Auto-sampler for 6 h Measured concentration: 1544.16 ± 36.02 ng/mL
  Three freeze-thaw cycles Measured concentration: 1549.77 ± 41.79 ng/mL
[4]; [24]
  Auto-sampler for 6 h Measured concentration: 38.33 ± 2.37 ng/mL
  Three freeze-thaw cycles Measured concentration: 37.62 ± 2.38 ng/mL
[4]; [25]
  Auto-sampler for 6 h Measured concentration: 243.55 ± 12.09 ng/mL
  Three freeze-thaw cycles Measured concentration: 240.11 ± 10.98 ng/mL
[4]; [26]
  Auto-sampler for 6 h Measured concentration: 1293.63 ± 65.40 ng/mL
  Three freeze-thaw cycles Measured concentration: 1296.24 ± 110.99 ng/mL
[4]; [27]
  Auto-sampler for 6 h Measured concentration: 12.77 ± 1.27 ng/mL
  Three freeze-thaw cycles Measured concentration: 12.39 ± 1.33 ng/mL
[4]; [28]
  Auto-sampler for 6 h Measured concentration: 150.09 ± 2.73 ng/mL
  Three freeze-thaw cycles Measured concentration: 154.01 ± 1.23 ng/mL
[4]; [29]
  Auto-sampler for 6 h Measured concentration: 1990.73 ± 48.18 ng/mL
  Three freeze-thaw cycles Measured concentration: 1950.06 ± 62.22 ng/mL
[4]; [30]
  Auto-sampler for 6 h Measured concentration: 31.95 ± 1.48 ng/mL
  Three freeze-thaw cycles Measured concentration: 32.15 ± 1.58 ng/mL
[4]; [31]
  Auto-sampler for 6 h Measured concentration: 232.19 ± 3.53 ng/mL
  Three freeze-thaw cycles Measured concentration: 247.56 ± 6.23 ng/mL
[4]; [32]
  Auto-sampler for 6 h Measured concentration: 1622.87 ± 76.11 ng/mL
  Three freeze-thaw cycles Measured concentration: 1662.82 ± 50.13 ng/mL
[4]; [33]
  Auto-sampler for 6 h Measured concentration: 21.14 ± 1.50 ng/mL
  Three freeze-thaw cycles Measured concentration: 21.58 ± 1.95 ng/mL
[4]; [34]
  Auto-sampler for 6 h Measured concentration: 244.68 ± 7.59 ng/mL
  Three freeze-thaw cycles Measured concentration: 245.34 ± 9.19 ng/mL
[5]
  crossing of the blood-brain barrier: could cross the blood-brain barrier
